Laboratory results: paper PMC10443802, “Targeting a xenobiotic transporter to ameliorate vincristine-induced sensory neuropathy” (JCI Insight, 2023)
Several values for one entry are separate records, joined by “and”; a condition that tells them apart may be missing. Equal values may be shown once.

What was measured:
hOATP1B3 = target: T1, hOATP1B3 (Homo sapiens, UniProt Q9NPD5); test: Inhibition of EβG uptake in HEK293 cells overexpressing hOATP1B3; conditions: HEK293 hOATP1B3; inhibitor 10 μM, 15-min pre-incubation
T1 sequence (Q9NPD5 1-702): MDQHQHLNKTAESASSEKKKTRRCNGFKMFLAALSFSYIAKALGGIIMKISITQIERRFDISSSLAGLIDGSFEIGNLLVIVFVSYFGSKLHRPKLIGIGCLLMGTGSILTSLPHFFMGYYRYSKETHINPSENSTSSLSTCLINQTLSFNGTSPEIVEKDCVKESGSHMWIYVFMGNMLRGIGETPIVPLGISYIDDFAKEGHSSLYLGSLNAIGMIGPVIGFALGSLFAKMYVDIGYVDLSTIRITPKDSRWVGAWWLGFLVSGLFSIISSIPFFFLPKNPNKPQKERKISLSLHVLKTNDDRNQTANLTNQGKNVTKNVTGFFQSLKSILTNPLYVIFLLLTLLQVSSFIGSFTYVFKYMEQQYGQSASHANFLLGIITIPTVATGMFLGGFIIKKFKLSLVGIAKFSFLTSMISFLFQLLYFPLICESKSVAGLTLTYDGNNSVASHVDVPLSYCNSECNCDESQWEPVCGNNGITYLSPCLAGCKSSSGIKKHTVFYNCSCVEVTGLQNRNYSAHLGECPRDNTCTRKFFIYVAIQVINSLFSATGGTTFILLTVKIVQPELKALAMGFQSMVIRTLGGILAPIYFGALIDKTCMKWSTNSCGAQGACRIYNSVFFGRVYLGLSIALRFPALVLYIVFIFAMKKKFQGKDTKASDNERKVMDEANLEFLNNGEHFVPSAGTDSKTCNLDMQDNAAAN

hOATP2B1 = hOATP2B1 (Homo sapiens, UniProt O94956); test: Vincristine uptake screen, HeLa cells overexpressing hOATP2B1; type: in vitro ADME
hOATP2B1, sequence (O94956 whole entry): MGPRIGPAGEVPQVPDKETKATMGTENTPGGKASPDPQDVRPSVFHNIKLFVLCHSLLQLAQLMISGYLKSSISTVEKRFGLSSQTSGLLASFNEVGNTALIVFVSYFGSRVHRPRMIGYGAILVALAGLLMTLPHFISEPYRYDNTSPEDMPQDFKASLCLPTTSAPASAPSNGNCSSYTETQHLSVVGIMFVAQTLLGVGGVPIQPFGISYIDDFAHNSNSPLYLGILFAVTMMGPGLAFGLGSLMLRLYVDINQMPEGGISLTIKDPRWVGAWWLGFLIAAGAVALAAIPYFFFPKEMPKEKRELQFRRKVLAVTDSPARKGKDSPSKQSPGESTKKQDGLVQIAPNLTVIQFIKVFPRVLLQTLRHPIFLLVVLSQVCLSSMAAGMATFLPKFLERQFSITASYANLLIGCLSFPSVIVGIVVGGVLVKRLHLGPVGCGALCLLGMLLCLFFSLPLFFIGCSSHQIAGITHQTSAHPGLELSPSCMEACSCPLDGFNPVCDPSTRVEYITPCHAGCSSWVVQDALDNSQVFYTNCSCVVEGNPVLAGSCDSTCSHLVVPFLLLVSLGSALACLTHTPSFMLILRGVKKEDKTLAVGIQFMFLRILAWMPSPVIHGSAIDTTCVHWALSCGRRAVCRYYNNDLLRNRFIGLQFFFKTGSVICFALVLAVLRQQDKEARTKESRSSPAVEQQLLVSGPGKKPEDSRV
Experimental: (§1) Relative uptake is expressed as percentage change compared with empty vector controls (n = 4–14 per group). […] Human OATP1B1 and OATP1B3 transporter–overexpressed cells were used as positive controls; empty vector controls were used as the negative control. […] Mechanical allodynia (C), thermal hyperalgesia (D), and sciatic nerve maximal action potential amplitudes (E) are expressed as percentage change relative to baseline values (n = 6–8 per group). Statistical analysis was performed using a 2-way ANOVA with Bonferroni’s post hoc test. **P < 0.01, ***P < 0.001, ****P < 0.0001, compared with baseline values. […] Data are shown as mean ± SEM. […]
(§2) transfected with transporters of interest, including hOAT1, hOAT3, hOAT4, hOATP1A2, hOATP3A1, hOATP4A1, hOATP5A1, hOATP1C1, hOATP1B1, hOATP1B3, hOATP2B1, hOCT1, hOCT2, hOCTN1, hOCTN2, hASBT, hNTCP, hNPT1, hMATE1, hOSTα/β, hPEPT1, hPEPT2, rOatp1a1, rOatp1a4, rOatp1a5, rOatp1b2, rNtcp, rAsbt, rOat1, and rOct1. Cells were transfected with expression plasmid or vector control lacking any insert using Lipofectin reagent (Invitrogen). […] The cellular radioactivity was quantified by liquid scintillation counting as described above. […]
(§3) Samples were analyzed using real-time quantitative PCR and Taqman Probes (Applied Biosystems). The relative gene expression was determined using the ΔΔCt method, and normalized to the mouse or human housekeeping gene, GAPDH. […]

hASBT = hASBT (Homo sapiens, UniProt Q12908); test: Vincristine uptake screen, HeLa cells overexpressing hASBT; type: in vitro ADME
hASBT, sequence (Q12908 whole entry): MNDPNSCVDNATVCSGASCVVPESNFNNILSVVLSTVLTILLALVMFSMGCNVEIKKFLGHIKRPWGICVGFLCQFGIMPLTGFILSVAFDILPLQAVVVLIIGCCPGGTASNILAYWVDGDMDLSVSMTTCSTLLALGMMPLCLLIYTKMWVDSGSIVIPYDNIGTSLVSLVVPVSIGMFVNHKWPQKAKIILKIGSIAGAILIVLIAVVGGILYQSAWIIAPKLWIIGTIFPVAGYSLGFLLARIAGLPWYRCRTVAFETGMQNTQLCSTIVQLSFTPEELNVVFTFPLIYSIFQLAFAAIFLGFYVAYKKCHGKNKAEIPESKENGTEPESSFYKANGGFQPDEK
Experimental: as §1, §2, §3

rASBT = rASBT (Rattus norvegicus, UniProt Q62633); test: Vincristine uptake screen, HeLa cells overexpressing rASBT; type: in vitro ADME
rASBT, sequence (Q62633 whole entry): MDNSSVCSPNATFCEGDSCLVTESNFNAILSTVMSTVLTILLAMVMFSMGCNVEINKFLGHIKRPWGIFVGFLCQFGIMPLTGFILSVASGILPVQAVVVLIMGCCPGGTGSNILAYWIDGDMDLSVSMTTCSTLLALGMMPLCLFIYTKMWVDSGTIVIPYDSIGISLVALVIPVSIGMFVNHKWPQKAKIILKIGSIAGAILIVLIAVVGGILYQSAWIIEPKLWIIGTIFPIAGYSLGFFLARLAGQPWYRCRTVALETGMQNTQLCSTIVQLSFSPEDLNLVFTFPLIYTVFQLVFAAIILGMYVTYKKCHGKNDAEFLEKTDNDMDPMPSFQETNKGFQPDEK
Experimental: as §1
as §2, with “(Invitrogen). Sixteen hours thereafter, cells were washed with transport media (OPTIMEM, Invitrogen) and treated with radiolabeled drug.” for “(Invitrogen).”

CCRF = test: Cytotoxicity of vincristine with or without nilotinib, MTT assay, CCRF; type: cell-based, human; conditions: CCRF cells, vincristine alone, individual replicates
RS411 = test: Cytotoxicity of vincristine with or without nilotinib, MTT assay, RS411; type: cell-based, human; conditions: RS411 cells, vincristine alone, individual replicates
K562 = test: Cytotoxicity of vincristine with or without nilotinib, MTT assay, K562; type: cell-based; conditions: Homo sapiens, K562, K562 cells, vincristine + 1μM Nilotinib, individual replicates
OATP1B3 protein variants = test: Vincristine transport by OATP1B3 single-nucleotide variants; type: in vitro ADME, human; conditions: single-nucleotide substitutions
Experimental: Figure S2. […] (A) Single […]
nucleotide polymorphisms (SNPs) activity percentage of OATP1B3 over-expressed cell after treated […]
Statistical analysis was performed using one-way ANOVA with Dunnett’s […]
(B) Schematic overview of […]
week (cumulative dose of 4 mg/kg). Von-Frey tests were performed on day -1, 9, 16, 18, and 23. Thermal hyperalgesia (Hargreaves test) and nerve conduction studies of the sciatic and caudal nerve were measured on days -1 and 23. Tissue samples for morphologic evaluation were obtained on day 24. (C) […]
and OATP1B2- deficient groups.
Normalized mechanical allodynia (E) was expressed as a percentage change relative to baseline values (n = 6-8 per group). Statistical

Structure (SMILES) | EβG uptake (% of vehicle) (hOATP1B3) | Vincristine uptake (% of vector control) (hOATP2B1) | Vincristine uptake (% of vector control) (hASBT) | Vincristine uptake (% of vector control) (rASBT) | IC50 (CCRF) | IC50 (RS411) | IC50 (K562) | Transport by OATP1B3 protein variants (OATP1B3 protein variants)
Cc1cn(-c2cc(NC(=O)c3ccc(C)c(Nc4nccc(-c5cccnc5)n4)c3)cc(C(F)(F)F)c2)cn1 [Nilotinib, nilotinib] | 3.038 % of vehicle and 2.924 % of vehicle and 2.718 % of vehicle |  |  |  |  |  |  | 
CC[C@]1(O)C[C@H]2CN(CCc3c([nH]c4ccccc34)[C@@](C(=O)OC)(c3cc4c(cc3OC)N(C=O)[C@H]3[C@@](O)(C(=O)OC)[C@H](OC(C)=O)[C@]5(CC)C=CCN6CC[C@]43[C@@H]65)C2)C1 [Vincristine, vincristine] |  | 113.00 % of vector control and 80.00 % of vector control and 88.00 % of vector control and 105.00 % of vector control and 83.00 % of vector control and 131.00 % of vector control and 125.00 % of vector control and 135.00 % of vector control | 91.00 % of vector control and 82.00 % of vector control and 85.00 % of vector control and 81.00 % of vector control and 114.00 % of vector control and 83.00 % of vector control and 69.00 % of vector control and 101.00 % of vector control | 95.00 % of vector control and 78.00 % of vector control and 81.00 % of vector control and 90.00 % of vector control and 114.00 % of vector control and 85.00 % of vector control and 118.00 % of vector control | 4.56 nM and 4.49 nM and 1.65 nM and 7.48 nM and 6.4 nM and 5.53 nM and 3.87 nM and 3.24 nM and 7.33 nM | 4.81 nM and 6.23 nM and 4 nM and 8.42 nM and 6.45 nM and 7.46 nM and 5.33 nM and 4.58 nM and 7.35 nM | 17.5 nM | impaired ability to transport vincristine
